Among the test systems are Escherichia coli UB1005; Bacillus megaterium Bm11; Escherichia coli ML-35; Escherichia coli 078; Escherichia coli 987P; Escherichia coli K88; Escherichia coli K99; Bacillus subtilis 168 HT; Escherichia coli MG1655.
Holding throughout (assay): ≥ marks a high value that may be exact or a test limit, other limits are often not marked, values filed in µg/mL are converted to µM
In experiment [1] the test system is Pseudomonas aeruginosa H374.
Experiment [2] relates to Pseudomonas aeruginosa H547.
The test system of experiment [3] is Pseudomonas aeruginosa H744.
Experiment [4] relates to Pseudomonas aeruginosa K799.
Experiment [5] concerns Pseudomonas aeruginosa Z61.
In experiment [6] the test system is Salmonella enterica subsp. enterica serovar Typhimurium ATCC 14028s.
Experiment [7] deals with Pseudomonas aeruginosa ATCC 27853.
Experiment [8] concerns Salmonella enterica subsp. enterica serovar Typhimurium ATCC 14028.
Experiment [9] concerns Staphylococcus aureus 710A.
Experiment [10] concerns Cronobacter muytjensii ATCC 51329.
The test system of experiment [11] is Cronobacter sakazakii ATCC BAA-894.
For experiment [12], the system named is Cronobacter sakazakii DPC 6440.
Experiment [13] concerns Cronobacter sakazakii DSM 4485.
The test system of experiment [14] is Escherichia coli NCIMB 11843.
Experiment [15] concerns Klebsiella pneumoniae NCIMB 13218.
The subject of experiment [16] is Pseudomonas fluorescens NCIMB 9046.
Experiment [17] has as its system Salmonella enterica subsp. enterica serovar Typhimurium LT2.
The subject of experiment [18] is Staphylococcus aureus NCTC 8325-4.
Experiment [19] deals with Staphylococcus aureus Newman.
The test system of experiment [20] is Staphylococcus aureus RF122.
Experiment [21] relates to Staphylococcus aureus RN4220.
Experiment [22] has as its system Staphylococcus aureus SA113.
Experiment [23] has as its system Candida albicans CGMCC 2.2086.
The test system of experiment [24] is Candida parapsilosis CGMCC 2.3989.
Experiment [25] relates to Candida tropicalis CGMCC 2.1975.
Experiment [26] has as its system Escherichia coli ATCC 25922.
Experiment [27] has as its system Lacticaseibacillus rhamnosus 7469.
Experiment [28] relates to Lactiplantibacillus plantarum 8014.
Experiment [29] has as its system Pseudomonas aeruginosa PAO1.
The test system of experiment [30] is Salmonella enterica subsp. enterica serovar Typhimurium C77-31.
In experiment [31] the test system is Staphylococcus aureus ATCC 25923.
For experiment [32], the system named is Staphylococcus aureus ATCC 29213.
The subject of experiment [33] is Staphylococcus epidermidis ATCC 12228.

≈ marks a conversion by molar mass, not a printed value. Where “and” joins values, the source holds several entries; their conditions need not be identical. Identical values can stand only once.

As a reminder, the MIC is the lowest concentration found to suppress growth. A higher MIC goes with a less susceptible organism. As to `CC(C)[C@H](NC(=O)[C@H](CO)NC(=O)[C@H](CC(N)=O)NC(=O)[C@H](CC(=O)O)NC(=O)[C@H](Cc1ccccc1)NC(=O)[C@H](CO)NC(=O)CNC(=O)[C@@H](NC(=O)[C@H](CCC(N)=O)NC(=O)[C@H](CCCCN)NC(=O)[C@H](Cc1ccccc1)NC(=O)[C@H](Cc1ccccc1)NC(=O)[C@H](CO)NC(=O)[C@H](CCCCN)NC(=O)[C@H](CCCN=C(N)N)NC(=O)[C@H](Cc1c[nH]c2ccccc12)NC(=O)[C@H](CCCCN)NC(=O)[C@@H](N)CCCCN)C(C)C)C(=O)O` [KKWRKSFFKQVGSFDNSV], the MIC (against Escherichia coli UB1005; in [1]; in experiment [2]; in [3]; in [4]; in experiment [5]) was 29.2 µM (≈ 64 µg/mL) each time. In addition, in [6], the MIC turned out to be 29.2 µM (≈ 64 µg/mL).

For `CC[C@H](C)[C@H](NC(=O)[C@H](CCCCN)NC(=O)[C@H](CCCCN)NC(=O)[C@H](CC(C)C)NC(=O)[C@H](CC(C)C)NC(=O)CN)C(=O)N[C@@H](C)C(=O)N[C@@H](CCCCN)C(=O)N[C@@H](CCCCN)C(=O)N[C@@H](C)C(=O)N[C@@H](CCCCN)C(=O)N[C@@H](CCCCN)C(=O)N[C@@H](C)C(=O)NCC(=O)N[C@@H](CCCCN)C(=O)N[C@@H](CCCCN)C(=O)N[C@@H](CC(C)C)C(=O)NCC(=O)N[C@@H](Cc1ccc(O)cc1)C(N)=O` [GLLKKIAKKAKKAGKKLGY], the MIC is no less than 32 µM in the experiment with Bacillus megaterium Bm11; 4 µM (≈ 8.17 µg/mL) against Escherichia coli ML-35; 8 µM (≈ 16.3 µg/mL) in [7]; greater than 32 µM in experiment [8]; no less than 32 µM in [9].

On to `CC[C@H](C)[C@H](N)C(=O)N[C@@H](C)C(=O)N[C@@H](Cc1cnc[nH]1)C(=O)N[C@@H](CCC(N)=O)C(=O)NCC(=O)N[C@@H](CC(C)C)C(=O)N1CCC[C@H]1C(=O)N[C@@H](CCC(N)=O)C(=O)N[C@@H](CCC(=O)O)C(=O)O` [IAHQGLPQE], for which the MIC in experiment [10] is no less than 2500 µM; in [11] it was no less than 2500 µM; in experiment [12], no less than 312 µM; in experiment [13], no less than 2500 µM; in experiment [14] it was no less than 1250 µM; in [15], no less than 1250 µM. The MIC in [16], in experiment [17], in experiment [18], in experiment [19], in [20] and in experiment [21] was no less than 1250 µM in each case. The same compound registered an MIC in [22] of no less than 1250 µM.

With `CC[C@H](C)[C@H](N)C(=O)N[C@@H](Cc1cnc[nH]1)C(=O)N[C@@H](Cc1cnc[nH]1)C(=O)N[C@H](C(=O)N[C@@H](Cc1cnc[nH]1)C(=O)N[C@@H](Cc1cnc[nH]1)C(=O)N[C@@H](Cc1cnc[nH]1)C(=O)N[C@H](C(=O)N[C@@H](Cc1cnc[nH]1)C(=O)N[C@@H](Cc1cnc[nH]1)C(=O)N[C@H](C(=O)N[C@@H](Cc1cnc[nH]1)C(=O)N[C@@H](Cc1cnc[nH]1)C(=O)N[C@@H](Cc1cnc[nH]1)C(N)=O)[C@@H](C)CC)[C@@H](C)CC)[C@@H](C)CC` [IHHIHHHIHHIHHH], the MIC in experiment [23] is 16 µM (≈ 29.5 µg/mL); in experiment [24], 2 µM (≈ 3.68 µg/mL); in [25] it was 1 µM (≈ 1.84 µg/mL); in the experiment on Escherichia coli 078, no less than 64 µM; in the experiment on Escherichia coli 987P, no less than 64 µM; in experiment [26], 64 µM and > 32 µM. Further, the MIC against Escherichia coli K88 was no less than 64 µM; against Escherichia coli K99, no less than 64 µM; against Escherichia coli UB1005, no less than 64 µM; in [27], no less than 64 µM; in experiment [28] it was no less than 64 µM; in experiment [29], 64 µM (≈ 118 µg/mL). Also, the MIC in experiment [8] is greater than 64 µM; in [30] it was no less than 64 µM; in experiment [31] it was greater than 64 µM; in experiment [32], greater than 64 µM; in experiment [33], greater than 64 µM.

As to `CC[C@H](C)[C@H](NC(=O)[C@H](CCCCN)NC(=O)[C@H](CCCCN)NC(=O)[C@H](CC(C)C)NC(=O)[C@H](CC(C)C)NC(=O)CN)C(=O)NCC(=O)N[C@@H](CCCCN)C(=O)N[C@@H](CCCCN)C(=O)N[C@@H](C)C(=O)N[C@@H](CCCCN)C(=O)N[C@@H](CCCCN)C(=O)N[C@@H](C)C(=O)N[C@@H](CC(C)C)C(=O)N[C@@H](CCCCN)C(=O)N[C@@H](CCCCN)C(=O)N[C@@H](CC(C)C)C(=O)NCC(=O)N[C@@H](Cc1ccc(O)cc1)C(N)=O` [GLLKKIGKKAKKALKKLGY], the MIC against Bacillus megaterium Bm11 came to 2 µM (≈ 4.17 µg/mL); against Escherichia coli ML-35, 0.5 µM (≈ 1.04 µg/mL); in experiment [7] it was 0.5 µM (≈ 1.04 µg/mL); in experiment [8], 2 µM (≈ 4.17 µg/mL); in experiment [9], 2 µM (≈ 4.17 µg/mL).

In the case of `CC[C@H](C)[C@H](NC(=O)CNC(=O)[C@H](C)NC(=O)[C@H](Cc1cnc[nH]1)NC(=O)[C@@H](NC(=O)[C@H](CCCCN)NC(=O)[C@H](Cc1ccc(O)cc1)NC(=O)[C@@H]1CCCN1C(=O)[C@@H](NC(=O)[C@H](CC(C)C)NC(=O)[C@H](CCCCN)NC(=O)[C@H](CCCCN)NC(=O)[C@@H](N)Cc1c[nH]c2ccccc12)C(C)C)[C@@H](C)CC)C(=O)O` [WKKLVPYKIHAGI], the MIC in the experiment on Bacillus subtilis 168 HT and in the experiment with Escherichia coli MG1655 was no less than 82 µM in each case.

The record behind these values is DBAASP.
